What was measured:
Experiment in all cases: KINOMEscan competition binding
Conditions in all cases: compound 10.0 µM
ACVR2A (human) = ACVR2A (human) (UniProt P27037)
AURKB (human) = AURKB (human) (UniProt Q96GD4)
AURKC (human) = AURKC (human) (UniProt Q9UQB9)
CHUK (human) = CHUK (human) (UniProt O15111)
CLK1 (human) = CLK1 (human) (UniProt P49759)
CLK2 (human) = CLK2 (human) (UniProt P49760)
CSNK1E (human) = CSNK1E (human) (UniProt P49674)
CSNK2A1 (human) = CSNK2A1 (human) (UniProt P68400)
CSNK2A2 (human) = CSNK2A2 (human) (UniProt P19784)
DAPK1 (human) = DAPK1 (human) (UniProt P53355)
DAPK3 (human) = DAPK3 (human) (UniProt O43293)
DMPK (human) = DMPK (human) (UniProt Q09013)
Chain of DMPK (human) (Q09013 whole entry, looked up): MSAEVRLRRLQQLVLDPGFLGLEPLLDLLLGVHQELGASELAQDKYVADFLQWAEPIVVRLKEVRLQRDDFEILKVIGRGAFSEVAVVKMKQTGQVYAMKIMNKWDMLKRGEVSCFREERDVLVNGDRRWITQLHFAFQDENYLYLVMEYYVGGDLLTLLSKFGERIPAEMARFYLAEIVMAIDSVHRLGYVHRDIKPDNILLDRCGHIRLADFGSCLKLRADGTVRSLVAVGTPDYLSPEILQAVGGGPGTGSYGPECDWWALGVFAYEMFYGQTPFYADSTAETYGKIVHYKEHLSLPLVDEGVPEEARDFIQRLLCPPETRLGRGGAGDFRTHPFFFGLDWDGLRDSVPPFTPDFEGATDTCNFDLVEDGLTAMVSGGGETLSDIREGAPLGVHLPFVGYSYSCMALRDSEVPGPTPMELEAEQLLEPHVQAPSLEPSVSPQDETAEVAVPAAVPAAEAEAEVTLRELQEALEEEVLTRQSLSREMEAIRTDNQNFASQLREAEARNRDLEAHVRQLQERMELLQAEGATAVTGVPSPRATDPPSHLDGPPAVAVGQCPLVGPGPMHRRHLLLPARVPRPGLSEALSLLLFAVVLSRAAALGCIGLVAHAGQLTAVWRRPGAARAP

[1] = test system: EGFR (human), P00533 [747-751 del / S ins]
[2] = test system: EIF2AK4 KD2 (human), Q9P2K8 [S808G]
[3] = test system: FLT3 (human), P36888 [D835Y]
[4] = test system: FLT3 (human), P36888 [ITD]
[5] = test system: FLT3 (human), P36888 [K663Q]
[6] = test system: FLT3 (human), P36888 [N841I]
GAK (human) = GAK (human) (UniProt O14976)
GSK3A (human) = GSK3A (human) (UniProt P49840)
[7] = test system: KIT (human), P10721 [V559D/V654A]
[8] = test system: KIT (human), P10721 [V559D]
MAP2K4 (human) = MAP2K4 (human) (UniProt P45985)
Chain of MAP2K4 (human) (P45985 whole entry, looked up): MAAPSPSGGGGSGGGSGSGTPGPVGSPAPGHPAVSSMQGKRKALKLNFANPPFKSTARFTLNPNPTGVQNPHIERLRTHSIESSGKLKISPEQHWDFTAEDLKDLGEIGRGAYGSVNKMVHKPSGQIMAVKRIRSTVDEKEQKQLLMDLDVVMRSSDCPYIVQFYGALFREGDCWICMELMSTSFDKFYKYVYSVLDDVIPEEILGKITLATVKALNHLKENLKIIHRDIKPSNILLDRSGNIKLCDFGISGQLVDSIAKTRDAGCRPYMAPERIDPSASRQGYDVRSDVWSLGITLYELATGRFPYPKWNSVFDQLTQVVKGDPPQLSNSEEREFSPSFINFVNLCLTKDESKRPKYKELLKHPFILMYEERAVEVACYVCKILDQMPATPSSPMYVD

MAP3K7 (human) = MAP3K7 (human) (UniProt O43318)
MAPK15 (human) = MAPK15 (human) (UniProt Q8TD08)
MKNK2 (human) = MKNK2 (human) (UniProt Q9HBH9)
PHKG2 (human) = PHKG2 (human) (UniProt P15735)
PIK3CG (human) = PIK3CG (human) (UniProt P48736)
PIM3 (human) = PIM3 (human) (UniProt Q86V86)
PIP4K2B (human) = PIP4K2B (human) (UniProt P78356)
Chain of PIP4K2B (human) (P78356 whole entry, looked up): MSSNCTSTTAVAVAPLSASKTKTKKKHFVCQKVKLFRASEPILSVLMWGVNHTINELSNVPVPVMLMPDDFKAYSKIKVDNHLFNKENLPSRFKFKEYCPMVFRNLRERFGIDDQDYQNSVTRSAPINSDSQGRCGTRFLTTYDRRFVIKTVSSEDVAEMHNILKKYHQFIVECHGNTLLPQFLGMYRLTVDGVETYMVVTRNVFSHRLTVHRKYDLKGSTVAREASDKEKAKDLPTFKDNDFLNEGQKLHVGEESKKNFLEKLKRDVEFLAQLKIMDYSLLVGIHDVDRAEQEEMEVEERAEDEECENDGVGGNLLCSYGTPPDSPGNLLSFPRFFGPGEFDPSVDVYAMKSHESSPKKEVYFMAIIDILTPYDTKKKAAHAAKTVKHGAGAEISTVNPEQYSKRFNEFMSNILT

RIOK1 (human) = RIOK1 (human) (UniProt Q9BRS2)
RIOK3 (human) = RIOK3 (human) (UniProt O14730)
RPS6KA2 KD2 (human) = RPS6KA2 KD2 (human) (UniProt Q15349)
SRPK3 (human) = SRPK3 (human) (UniProt Q9UPE1)
STK11 (human) = STK11 (human) (UniProt Q15831)
Chain of STK11 (human) (Q15831 whole entry, looked up): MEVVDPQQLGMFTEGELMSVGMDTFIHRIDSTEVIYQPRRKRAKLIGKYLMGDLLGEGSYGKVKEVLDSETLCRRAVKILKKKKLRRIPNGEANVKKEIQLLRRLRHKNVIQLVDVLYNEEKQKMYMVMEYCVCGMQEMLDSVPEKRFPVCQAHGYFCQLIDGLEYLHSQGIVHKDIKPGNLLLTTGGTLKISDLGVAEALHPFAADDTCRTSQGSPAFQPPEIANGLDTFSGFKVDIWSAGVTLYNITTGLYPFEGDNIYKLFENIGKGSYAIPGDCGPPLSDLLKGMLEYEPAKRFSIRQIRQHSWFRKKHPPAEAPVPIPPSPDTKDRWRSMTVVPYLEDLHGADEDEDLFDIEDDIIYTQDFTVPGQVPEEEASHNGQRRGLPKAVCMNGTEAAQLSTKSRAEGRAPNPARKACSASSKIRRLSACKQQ

TAOK1 (human) = TAOK1 (human) (UniProt Q7L7X3)
Chain of TAOK1 (human) (Q7L7X3 whole entry, looked up): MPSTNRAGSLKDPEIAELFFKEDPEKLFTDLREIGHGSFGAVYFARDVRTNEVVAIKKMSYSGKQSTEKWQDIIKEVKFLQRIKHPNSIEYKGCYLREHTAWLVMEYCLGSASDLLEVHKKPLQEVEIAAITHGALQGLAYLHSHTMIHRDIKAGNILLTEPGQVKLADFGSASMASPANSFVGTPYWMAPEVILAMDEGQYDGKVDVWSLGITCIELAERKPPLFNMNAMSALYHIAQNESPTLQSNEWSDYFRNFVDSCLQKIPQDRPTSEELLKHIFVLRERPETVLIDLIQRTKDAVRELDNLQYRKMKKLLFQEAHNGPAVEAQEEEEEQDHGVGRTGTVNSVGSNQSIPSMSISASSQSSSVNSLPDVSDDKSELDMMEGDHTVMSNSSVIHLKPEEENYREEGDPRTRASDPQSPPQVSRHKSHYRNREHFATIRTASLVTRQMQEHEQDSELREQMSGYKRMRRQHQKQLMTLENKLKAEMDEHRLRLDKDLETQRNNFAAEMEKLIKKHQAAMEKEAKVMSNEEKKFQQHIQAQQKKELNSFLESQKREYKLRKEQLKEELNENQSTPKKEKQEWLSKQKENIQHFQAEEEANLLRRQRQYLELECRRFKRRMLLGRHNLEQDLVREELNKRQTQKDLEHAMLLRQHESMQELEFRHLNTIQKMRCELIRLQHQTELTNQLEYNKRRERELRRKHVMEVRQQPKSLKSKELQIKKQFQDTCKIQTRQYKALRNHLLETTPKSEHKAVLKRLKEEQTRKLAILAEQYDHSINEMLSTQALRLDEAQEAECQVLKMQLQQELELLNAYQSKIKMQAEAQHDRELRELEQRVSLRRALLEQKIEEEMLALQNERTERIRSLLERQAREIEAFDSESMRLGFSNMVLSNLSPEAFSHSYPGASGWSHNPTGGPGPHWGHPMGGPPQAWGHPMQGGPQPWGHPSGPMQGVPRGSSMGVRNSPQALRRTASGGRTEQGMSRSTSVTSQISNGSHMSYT

TAOK3 (human) = TAOK3 (human) (UniProt Q9H2K8)
TGFBR2 (human) = TGFBR2 (human) (UniProt P37173)
TLK1 (human) = TLK1 (human) (UniProt Q9UKI8)
TNIK (human) = TNIK (human) (UniProt Q9UKE5)
TNK1 (human) = TNK1 (human) (UniProt Q13470)
Chain of TNK1 (human) (Q13470 whole entry, looked up): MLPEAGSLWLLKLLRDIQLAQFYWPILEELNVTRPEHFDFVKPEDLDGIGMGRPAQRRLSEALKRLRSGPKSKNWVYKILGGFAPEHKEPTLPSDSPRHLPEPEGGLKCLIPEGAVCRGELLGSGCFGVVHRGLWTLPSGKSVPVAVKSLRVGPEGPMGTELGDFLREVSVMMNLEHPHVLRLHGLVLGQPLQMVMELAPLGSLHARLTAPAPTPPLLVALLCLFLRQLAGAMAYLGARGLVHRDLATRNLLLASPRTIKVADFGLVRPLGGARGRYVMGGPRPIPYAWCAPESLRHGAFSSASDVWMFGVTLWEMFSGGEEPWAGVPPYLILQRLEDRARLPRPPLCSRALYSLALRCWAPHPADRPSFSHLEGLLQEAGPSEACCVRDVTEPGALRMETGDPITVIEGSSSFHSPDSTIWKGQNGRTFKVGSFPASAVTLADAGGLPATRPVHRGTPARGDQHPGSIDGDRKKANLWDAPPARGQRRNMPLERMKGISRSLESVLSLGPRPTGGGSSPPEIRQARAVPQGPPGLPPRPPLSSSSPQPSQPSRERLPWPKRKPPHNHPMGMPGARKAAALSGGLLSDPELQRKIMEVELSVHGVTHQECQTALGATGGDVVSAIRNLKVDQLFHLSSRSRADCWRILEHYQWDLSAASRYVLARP

[9] = target: TYK2 JH2 pseudokinase (human) (UniProt P29597)
Chain of TYK2 JH2 pseudokinase (human) (P29597 whole entry, looked up): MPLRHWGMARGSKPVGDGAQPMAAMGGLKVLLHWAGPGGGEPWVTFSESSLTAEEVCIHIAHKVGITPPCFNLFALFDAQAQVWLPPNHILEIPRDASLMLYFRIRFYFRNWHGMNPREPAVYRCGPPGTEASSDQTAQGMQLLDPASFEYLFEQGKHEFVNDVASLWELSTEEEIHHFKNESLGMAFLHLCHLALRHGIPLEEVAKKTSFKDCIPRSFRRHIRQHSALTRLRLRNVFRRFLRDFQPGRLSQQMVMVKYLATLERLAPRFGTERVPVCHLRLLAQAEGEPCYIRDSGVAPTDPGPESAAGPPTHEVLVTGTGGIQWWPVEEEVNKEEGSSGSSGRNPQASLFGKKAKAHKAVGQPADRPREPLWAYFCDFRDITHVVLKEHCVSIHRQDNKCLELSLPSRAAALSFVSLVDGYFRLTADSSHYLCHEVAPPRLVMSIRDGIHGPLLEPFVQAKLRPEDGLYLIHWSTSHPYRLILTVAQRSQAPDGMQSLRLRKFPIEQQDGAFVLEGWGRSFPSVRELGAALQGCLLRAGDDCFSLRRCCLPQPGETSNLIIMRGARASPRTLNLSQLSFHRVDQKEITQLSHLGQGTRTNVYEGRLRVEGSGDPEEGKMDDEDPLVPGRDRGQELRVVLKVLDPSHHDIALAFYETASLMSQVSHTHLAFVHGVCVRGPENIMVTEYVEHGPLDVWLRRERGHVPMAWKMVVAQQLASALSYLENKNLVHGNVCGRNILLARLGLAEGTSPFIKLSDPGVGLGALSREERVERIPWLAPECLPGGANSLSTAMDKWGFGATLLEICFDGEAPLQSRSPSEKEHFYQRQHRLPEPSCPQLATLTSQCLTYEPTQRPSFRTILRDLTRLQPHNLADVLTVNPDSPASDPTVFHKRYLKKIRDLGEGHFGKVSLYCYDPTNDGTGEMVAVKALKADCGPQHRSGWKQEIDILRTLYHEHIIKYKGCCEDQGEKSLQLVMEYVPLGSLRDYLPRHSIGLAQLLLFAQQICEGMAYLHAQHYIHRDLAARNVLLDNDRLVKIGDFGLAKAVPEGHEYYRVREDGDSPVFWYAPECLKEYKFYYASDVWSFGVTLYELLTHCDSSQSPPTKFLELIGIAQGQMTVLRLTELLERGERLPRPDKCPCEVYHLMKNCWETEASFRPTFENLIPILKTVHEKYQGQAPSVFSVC

Chain of AURKC (human) (Q9UQB9 whole entry, looked up): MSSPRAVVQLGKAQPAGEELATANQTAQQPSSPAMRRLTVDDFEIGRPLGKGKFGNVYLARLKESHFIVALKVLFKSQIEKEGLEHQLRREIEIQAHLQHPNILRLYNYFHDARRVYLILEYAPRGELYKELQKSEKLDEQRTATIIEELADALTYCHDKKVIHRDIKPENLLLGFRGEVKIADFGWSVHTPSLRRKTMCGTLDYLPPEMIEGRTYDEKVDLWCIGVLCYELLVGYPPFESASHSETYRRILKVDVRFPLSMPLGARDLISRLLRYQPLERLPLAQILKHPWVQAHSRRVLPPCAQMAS

With CN1C(=O)c2ccccc2N(C)c2nc(NS(=O)(=O)c3ccc(N)cc3)ncc21 the kinase still bound, per cent of control (ACVR2A (human)) was 100%, the kinase still bound, per cent of control (AURKB (human)) was 100% and the kinase still bound, per cent of control (AURKC (human)) was 74%. The kinase still bound, per cent of control (CHUK (human)) was 95%, the kinase still bound, per cent of control (CLK1 (human)) was 100% and the kinase still bound, per cent of control (CLK2 (human)) was 100%. It also gave a kinase still bound, per cent of control (CSNK1E (human)) of 100%, a kinase still bound, per cent of control (CSNK2A1 (human)) of 100% and a kinase still bound, per cent of control (CSNK2A2 (human)) of 76%. The kinase still bound, per cent of control (DAPK1 (human)) was 100%, the kinase still bound, per cent of control (DAPK3 (human)) was 95% and the kinase still bound, per cent of control (DMPK (human)) was 86%. The kinase still bound, per cent of control [1] was 99%, the kinase still bound, per cent of control [2] was 100% and the kinase still bound, per cent of control [3] was 87%. For the same compound, the kinase still bound, per cent of control [4] was 100%, the kinase still bound, per cent of control [5] was 100% and the kinase still bound, per cent of control [6] was 90%. For the same compound, the kinase still bound, per cent of control (GAK (human)) was 100%, the kinase still bound, per cent of control (GSK3A (human)) was 100% and the kinase still bound, per cent of control [7] was 100%. For the same compound, the kinase still bound, per cent of control [8] was 100%, the kinase still bound, per cent of control (MAP2K4 (human)) was 61% and the kinase still bound, per cent of control (MAP3K7 (human)) was 87%. It also gave a kinase still bound, per cent of control (MAPK15 (human)) of 99%, a kinase still bound, per cent of control (MKNK2 (human)) of 72% and a kinase still bound, per cent of control (PHKG2 (human)) of 78%. It also gave a kinase still bound, per cent of control (PIK3CG (human)) of 96%, a kinase still bound, per cent of control (PIM3 (human)) of 100% and a kinase still bound, per cent of control (PIP4K2B (human)) of 100%. For the same compound, the kinase still bound, per cent of control (RIOK1 (human)) was 66%, the kinase still bound, per cent of control (RIOK3 (human)) was 69% and the kinase still bound, per cent of control (RPS6KA2 KD2 (human)) was 93%. For the same compound, the kinase still bound, per cent of control (SRPK3 (human)) was 100%, the kinase still bound, per cent of control (STK11 (human)) was 100% and the kinase still bound, per cent of control (TAOK1 (human)) was 60%. It also gave a kinase still bound, per cent of control (TAOK3 (human)) of 72%, a kinase still bound, per cent of control (TGFBR2 (human)) of 100% and a kinase still bound, per cent of control (TLK1 (human)) of 100%. It also gave a kinase still bound, per cent of control (TNIK (human)) of 100%, a kinase still bound, per cent of control (TNK1 (human)) of 100% and a kinase still bound, per cent of control [9] of 63%.

COc1cc(N2CCN(C)CC2)ccc1Nc1ncc2c(n1)N(C)c1ccccc1N(C)C2=O showed a kinase still bound, per cent of control (ACVR2A (human)) of 92%, a kinase still bound, per cent of control (AURKB (human)) of 100% and a kinase still bound, per cent of control (AURKC (human)) of 86%. For the same compound, the kinase still bound, per cent of control (CHUK (human)) was 60%, the kinase still bound, per cent of control (CLK1 (human)) was 66% and the kinase still bound, per cent of control (CLK2 (human)) was 81%. The kinase still bound, per cent of control (CSNK1E (human)) was 56%, the kinase still bound, per cent of control (CSNK2A1 (human)) was 88% and the kinase still bound, per cent of control (CSNK2A2 (human)) was 88%. The kinase still bound, per cent of control (DAPK1 (human)) was 82%, the kinase still bound, per cent of control (DAPK3 (human)) was 98% and the kinase still bound, per cent of control (DMPK (human)) was 100%. It also gave a kinase still bound, per cent of control [1] of 92%, a kinase still bound, per cent of control [2] of 100% and a kinase still bound, per cent of control [3] of 75%. It also gave a kinase still bound, per cent of control [4] of 92%, a kinase still bound, per cent of control [5] of 92% and a kinase still bound, per cent of control [6] of 92%. It also gave a kinase still bound, per cent of control (GAK (human)) of 45%, a kinase still bound, per cent of control (GSK3A (human)) of 100% and a kinase still bound, per cent of control [7] of 100%. For the same compound, the kinase still bound, per cent of control [8] was 95%, the kinase still bound, per cent of control (MAP2K4 (human)) was 98% and the kinase still bound, per cent of control (MAP3K7 (human)) was 100%. The kinase still bound, per cent of control (MAPK15 (human)) was 100%, the kinase still bound, per cent of control (MKNK2 (human)) was 0.55% and the kinase still bound, per cent of control (PHKG2 (human)) was 15%. The kinase still bound, per cent of control (PIK3CG (human)) was 100%, the kinase still bound, per cent of control (PIM3 (human)) was 84% and the kinase still bound, per cent of control (PIP4K2B (human)) was 91%. The kinase still bound, per cent of control (RIOK1 (human)) was 78%, the kinase still bound, per cent of control (RIOK3 (human)) was 77% and the kinase still bound, per cent of control (RPS6KA2 KD2 (human)) was 97%. For the same compound, the kinase still bound, per cent of control (SRPK3 (human)) was 68%, the kinase still bound, per cent of control (STK11 (human)) was 100% and the kinase still bound, per cent of control (TAOK1 (human)) was 100%. It also gave a kinase still bound, per cent of control (TAOK3 (human)) of 67%, a kinase still bound, per cent of control (TGFBR2 (human)) of 98% and a kinase still bound, per cent of control (TLK1 (human)) of 97%. The kinase still bound, per cent of control (TNIK (human)) was 90%, the kinase still bound, per cent of control (TNK1 (human)) was 4.9% and the kinase still bound, per cent of control [9] was 100%.
